Reference: patent US20160166637A1, “METHODS OF TREATING A CANCER THROUGH TARGETED DISRUPTION OF ALPHA CONNEXIN 43-ZONULA OCCLUDENS-1 (ZO-1) INTERACTION” (Virginia Tech Intellectual Properties, Inc., priority 2013, published 2016)
Blank lines part the entries; values can stand above or below the compound they belong to.

Tests used:
[1] = taken orally; cited from earlier work
GBM cells = settings: cited from earlier work
GS9-6 glioma stem cells = assay: Sphere/colony formation assay (self-renewal); type: cell-based, human; settings: FIG. 15
From the text: To further investigate the effect of ACT-1 on glioma stem cells, the present inventors measured the capacity of glioma stem cells to self-renew. The unique feature that makes glioma stem cells different from other glioma cells is that glioma stem cells are able to copy themselves (termed as self-renewal). The well-established approach to measure self-renewal of stem cells is sphere/colony formation assay. The self-renewal of GS9-6 glioma stem cells treated with ACT-1 was then monitored. […] Two different doses of ACT-1 and TMZ were tested. Both treatments inhibited the self-renewal of GS9-6 (FIGS. 16 and 17). Thus, the data strongly indicate that ACT-1 sensitizes glioblastoma cells to TMZ.

Cx43 CT = molecular target: T1, Cx43 CT (Homo sapiens, UniProt P17302); assay: EDAC cross-linking of ACT-1 and Cx43 carboxy terminal peptide (polyacrylamide gel); type: binding
T1 construct: EDAC cross-linking reaction of ACT-1 and connectin 43 carboxy terminal peptide
T1 sequence (P17302 229-382 limits assumed): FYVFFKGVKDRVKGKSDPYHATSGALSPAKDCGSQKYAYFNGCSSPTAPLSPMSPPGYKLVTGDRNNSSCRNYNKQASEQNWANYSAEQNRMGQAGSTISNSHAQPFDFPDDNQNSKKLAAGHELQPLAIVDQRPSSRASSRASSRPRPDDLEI
From the text: FIG. 6 is an image of a polyacrylamide gel showing EDAC cross-linking of ACT-1 and Cx43-CT.
FIG. 6 is an image of a polyacrylamide gel showing EDAC cross-linking reaction of ACT-1 and connectin 43 carboxy terminal peptide. […] ACT-1 is shown by the zero order cross-linker EDAC.

[2] = tested on: Cx-deficient C6 glioma cell line; assay: Cell aggregation assay on Cx-deficient cells; type: cell-based; settings: 1 μM and 25 μM compared
U87MG glioma cells = assay: Cell aggregation assay, aggregation index (AI); type: cell-based, human; settings: 25 μM, 48 hours, serum-free
Method: UM87MG glioma cells, which express Cx43, were cultured in serum-free conditions permissive to aggregation. The cells were treated with the ACT-1 peptide for 48 hours and then imaged with phase-contrast microscopy. […] To quantitate the extent of aggregation, ImageJ software was used to collect size information about the aggregates in these images and from that information an aggregation index was calculated for each image. The AI is defined as the total area of aggregation in a field divided by the number of single, unaggregated cells in that field. So an increase in the ratio of aggregation area to unaggregated cells would increase the AI and indicate a higher propensity to aggregate.

GS9-6 cells = assay: Viability of glioma stem cell line; type: cell-based, human; settings: alone or in combination
Method: FIG. 13 is a graph showing the effects of ACT-1 treatment at concentrations from 30 to 120 μM on the viability of the glial stem cell (GSC) line GS9-6 with or without temozolomide.
The ACT-1 peptide was tested on a glioma stem cell (GSC) line alone or in combination with temozolomide (TMZ).

U87 glioma cells = assay: Boyden chamber motility assay (Example 3); type: cell-based, human; settings: overnight pre-treatment in 10% serum, 4 hour incubation; vs no treatment and control peptide
Method: After an overnight peptide pre-treatment in 10% serum, two glioma cell lines, c6 and U87, were seeded in serum-free media containing peptides into Boyden chamber transwell inserts with 8 μm pores in the membrane and then filled the bottom wells with media containing 10% FBS as a chemoattractant. […] Then the migrated cells were fixed, stained with Hoescht dye, and imaged on an epifluorescence microscope.

[3] = in vivo; cited from earlier work
[4] = tested on: C6 cells stably expressing Cx43; assay: Boyden chamber motility assay (Example 4, serum-free pre-treatment); type: cell-based; settings: both concentrations of ACT-1 (1 μM, 25 μM); 24 hours serum-free pre-treatment, 4 hours
Method: FIGS. 10A-10C are images of a motility experiment using C6 cells stably expressing Cx43 showing no treatment (FIG. 10A), 25 μM reverse sequence peptide (control peptide) (FIG. 10B) and 25 μM ACT-1 (FIG. 10C).
FIG. 10D is a graph showing the results of the motility experiment using C6 cells stably expressing Cx43 showing no treatment, 1 μM ACT-1, 25 μM ACT-1, 1 μM reverse sequence peptide (control peptide), and 25 μM reverse sequence peptide (control peptide).
(§1) In this example, peptides were added after cells were incubated in serum-free media, then 24 hours of pre-treatment was allowed in the serum-free conditions, and finally the cells were transferred, without typsinizing, to Boyden chamber and incubated for 4 hours. […] With this example, the results of the C6 cells seemed to be similar to wt-C6 cells.

LN229/GSCs = assay: Glioma xenograft mouse model, tumor growth; type: in vivo, mice; settings: 200 μM/tumor ACT-1, 100 mg/kg TMZ
From the text: To further validate the therapeutic effect of ACT-1 in vivo, tumor growth was monitored using a glioma xenograft mouse model. As GS9-6 cells grow slowly in mice, the present inventors elected to use LN229/GSCs, isolated from LN229 human GBM cell line. […] LN229/GSCs were first injected into the flanks of immunocompromised mice and tumors (more than 100 mm3) were detected in all mice in 14 days. By contrast, GS9-6 cells form a tumor in 6 months (data not shown). Treatments at day 14 were then started. First, 100 mg/kg ACT-1 was injected subcutaneously. 24 hours later, mice were treated with 7.5 mg/kg TMZ (dissolved in DMSO) or vehicle DMSO intraperitoneally. Such treatment regime was repeated three times a week for three weeks, and tumor growth was monitored for another week. […] Taken together, these examples provide a firm support for potential clinical application of ACT-1 in treating human or canine glioblastoma patients.
FIG. 21 is a plot of tumor volume over 53 days for untreated, 200 μM/tumor ACT-1, 100 mg/kg TMZ treated, and combinatorial 200 μM/tumor ACT-1 and 100 mg/kg TMZ treated mice. FIG. 22 is a graph of tumor volumes at 53 days and FIG. 23 is an image of tumor volumes at 53 days for these treatments.

wild-type C6 cells = assay: Boyden chamber motility assay (Example 4) on wild-type cells; type: cell-based; settings: both concentrations of ACT-1 (1 μM, 25 μM)
Method: as §1
The same situation was true when the same experiment was performed on wild-type C6 cells.

Cx43 CT domain = Cx43 CT domain (Homo sapiens, UniProt P17302); assay: Dot blot binding of biotinylated AAP10 peptides to Cx43 CT; settings: biotinylated peptide, 500-1 ng
Cx43 CT domain, sequence (P17302 229-382 limits assumed): as above
From the text: FIG. 5 is an image showing the results of a dot blot assay for testing binding of AAP10 and AAP10-pTyr with Connexin43-carboxy terminus (CT).
By contrast, the tyrosine phosphorylated isoform biotinylated AAP10-pTyr show no affinity for Cx43 CT.

[5] = phase I, brain cancer patients; cited from earlier work

Compound: C[C@H]1c2cccc(O)c2C(=O)C2=C(O)[C@]3(O)C(=O)C(C(N)=O)=C(O)[C@@H](N(C)C)[C@@H]3[C@@H](O)[C@@H]21 [Doxycycline]
CSF to serum ratio [1]: ~0.26

Compound: CC#C[C@]1(O)CC[C@H]2[C@@H]3CCC4=CC(=O)CCC4=C3[C@@H](c3ccc(N(C)C)cc3)C[C@@]21C [mifepristone]
sensitization of GBM cells to TMZ (GBM cells): sensitizes GBM cells to TMZ

effect of binding on Cx43 CT homodimers (Cx43 CT; EDAC cross-linking): reduces Cx43 CT homodimers | interaction with the Cx43 CT (EDAC cross-linking) (Cx43 CT; zero order cross-linker EDAC): interacts with the Cx43 CT
Compound: ACT-1: SEQ ID NO:9: Antennapedia sequence RQPKIWFPNRRKPWKK linked to Cx43 c-terminal 9 amino acids RPRPDDLEI (RQPKIWFPNRRKPWKKRPRPDDLEI)
self-renewal of GS9-6 cells (GS9-6 glioma stem cells): not affected | aggregation versus controls [2]: no significant difference in aggregation | formation of amorphous clumps (phase-contrast images) (U87MG glioma cells): tended to form amorphous clumps | aggregation index (AI) (U87MG glioma cells; Bonferroni t-test): significantly higher AIs relative to controls | viability of GS9-6 cells (GS9-6 cells): only mildly reduced the viability | cell migration across the Boyden chamber membrane (U87 glioma cells): significant decrease in cell migration | half-life in the body [3]: less than a few hours | decrease in migration [4]: 5 × | tumor volume at 53 days (LN229/GSCs): may promote tumor growth | decrease in motility across the Boyden chamber (wild-type C6 cells): ~5 ×

affinity for the Cx43 CT domain in a dot blot (Cx43 CT domain): concentration dependent affinity
Compound: antiarrhythmic peptide 10 [AAP10]

Compound: cintredekin besudotox
adverse effects [5]: no significant adverse effects were observed
